# Assay results as given in patent US8148371B2, “Adenine compound and use thereof” (Dainippon Sumitomo Pharma Co., Ltd., priority 2002, dated 2012).
# Test system: not listed separately
# Experiment: Metabolic stability on liver S9 of rat
# Conditions: rat liver S9, test compound 1 μM, 37° C.
# Protocol: The compound of the present invention is added to liver S9 solution, and the mixture is incubated at 37±0.5° C. for 5 minutes to 2 hours. By quantitatively analyzing at the definite interval the amount of the compound of the present invention remaining in the liver S9 solution with HPLC (high performance liquid chromatography), etc., the constant of quenching velocity is calculated and the half life is calculated.
# The reaction on river S9 of a rat was carried out on a 96-well plate by using a robot for screening by Tecan Company. S9 solution was prepared by adding to 10 ml of liver S9 of a rat, 20 ml of 250 mM Kpi (pH 7.4) and 20 ml of deionized water. Cofactor solution was prepared by dissolving NADPH (220 mg) in deionized water (40.5 ml) to give finally a 6 mM solution. IS (Internal Standard) solution was prepared by adding 300 μL of IS solution (1 mM DMSO solution) to 30 ml of acetonitrile solution (100 times dilution). The test compound (1 μM DMSO solution) was dissolved in an incubator at 37° C., 35 μL of it was poured into each well of a 96-well plate (24 samples/plate and then, plates (a sample plate, a 96 well-plate for dilution, deep well plates for reaction and recovering, a plate for extraction of the solid phase) and the test samples (S9 solution, Cofactor solution, IS (Internal Standard) solution, Stop solution, acetonitrile for elution) were set to the specified position in the booth of the robot. The reaction started (the concentration of the test compound was 1 μM) and the mixture was incubated at 37° C. under stirring. The solid phase was extracted and at the same time the internal standard for analysis was added. To the recovered sample (200 μL/well) was added 50 μL of acetonitrile per each well and to 2 plates of FALCON Deep well were poured 100 μL of the solution per well. By subjecting to the LC/MS analysis, the chromatogram of the test sample and the internal standard were described and the peak area was calculated. And then, the stability (residual rate after reaction) was calculated by the internal standard method.
row,Compound,Residual rate [%]
1,"CCCCOc1nc(N)c2nc(O)n(Cc3ccc(C(=O)OCc4ccccc4)cc3)c2n1 [Example 14, 2-Butoxy-8-hydroxy-9-(4-benzyloxycarbonylbenzyl)adenine]",22
2,"Nc1nc(SCC(=O)N2CCOCC2)nc2c1nc(O)n2Cc1ccccc1 [Example 52, 9-Benzyl-8-hydroxy-2-(morphorinocarbonylmethyl)thioadenine]",24
3,"CCOC(=O)CCCCSc1nc(N)c2nc(O)n(Cc3ccccc3)c2n1 [Example 57, 9-Benzyl-2-(4-ethoxycarbonylbutyl)thio-8-hydroxyadenine]",3
4,CSC(=O)CCc1nc(N)c2nc(O)n(Cc3ccccc3)c2n1 [Example 63],0
5,"COC(=O)CCc1nc(N)c2nc(O)n(Cc3ccc(C)nc3)c2n1 [Example 66, 8-Hydroxy-2-methoxycarbonylethyl-9-{(6-methyl-3-pyridyl)methyl}adenine]",0
6,"COC(=O)CCc1nc(N)c2nc(O)n(Cc3ccc(CC(=O)OC)cc3)c2n1 [Example 67, 8-Hydroxy-2-(2-methoxycarbonylethyl)-9-(4-methoxycarbonylmethylbenzyl)adenine]",0
7,"CCCCOc1nc(N)c2nc(O)n(Cc3ccc(CC(=O)OCCN(C)C)cc3)c2n1.Cl [Example 72, 2-Butoxy-8-hydroxy-9-{4-(2-dimethylaminoethoxycarbonyl)methylbenzyl}adenine hydrochloride]",4
8,"CCCCOc1nc(N)c2nc(O)n(Cc3ccc(CN4CCOCC4)cc3)c2n1 [Example 79, 2-Butoxy-8-hydroxy-9-(4-morpholinomethylbenzyl)adenine]",17
9,"CCCCOc1nc(N)c2nc(O)n(Cc3ccc(CCC(=O)OCC)cc3)c2n1 [Example 86, 2-Butoxy-9-(4-ethoxycarbonylethylbenzyl)-8-hydroxyadenine]",18
10,"CCCCOc1nc(N)c2nc(O)n(Cc3ccc(OC4CCOC4=O)cc3)c2n1 (stereo not shown) [Example 94, 2-Butoxy-9-{4-(γ-butyrolactonyloxy)benzyl}-8-hydroxyadenine]",2

# Test system: cells of rat spleen
# Experiment: cells
# Format: cell-based, SD rat
# Conditions: not given
row,Compound,Minimum effective concentration (interferon inducing activity) [nM]
1,CSC(=O)CCc1nc(N)c2nc(O)n(Cc3ccccc3)c2n1 [Example 63],100
2,"COC(=O)CCc1nc(N)c2nc(O)n(Cc3ccc(C)nc3)c2n1 [Example 66, 8-Hydroxy-2-methoxycarbonylethyl-9-{(6-methyl-3-pyridyl)methyl}adenine]",1
3,CCCCOc1nc(N)c2nc(O)n(Cc3ccc(SC4CCOC4=O)nc3)c2n1 (stereo not shown) [Example 93],3

# Same assay, conditions: 24 h, read-out: Minimum effective concentration (interferon inducing activity)
row,Compound,minimal effective concentration [µM]
1,"Nc1nc(CCC(=O)O)nc2c1nc(O)n2Cc1ccccc1 [Comparative example 15, 9-Benzyl-2-(2-carboxyethyl)-8-hydroxyadenine, reference compound]",1
2,"COCCOc1nc(N)c2nc(O)n(Cc3cccc(CC(=O)O)c3)c2n1 [Comparative example 27, 9-(3-Carboxymethylbenzyl)-8-hydroxy-2-(2-methoxyethoxy)adenine, reference compound]",0.3
3,"CCCCOc1nc(N)c2nc(O)n(Cc3ccc(OCC(=O)OC)c(Br)c3)c2n1 [Example 23, 2-Butoxy-8-hydroxy-9-{3-bromo-4-(methoxycarbonylmethoxy)benzyl}adenine]",0.1
4,"COC(=O)CCc1nc(N)c2nc(O)n(Cc3ccc(CC(=O)OC)cc3)c2n1 [Example 67, 8-Hydroxy-2-(2-methoxycarbonylethyl)-9-(4-methoxycarbonylmethylbenzyl)adenine]",0.001
5,"CCCCOc1nc(N)c2nc(O)n(Cc3ccc(CC(N)=O)cc3)c2n1 [Example 76, 2-Butoxy-8-hydroxy-9-(4-carbamoylmethylbenzyl)adenine]",0.0001
6,"CCCCOc1nc(N)c2nc(O)n(Cc3ccc(CC(=O)NC)cc3)c2n1 [Example 77, 2-Butoxy-8-hydroxy-9-(4-methylcarbamoylmethylbenzyl)adenine]",0.0003
7,"CCCCOc1nc(N)c2nc(O)n(Cc3ccc(CC(=O)N(C)C)cc3)c2n1 [Example 78, 2-Butoxy-8-hydroxy-9-(4-dimethylcarbamoylmethylbenzyl)adenine]",3e-05
8,"CCCCOc1nc(N)c2nc(O)n(Cc3ccc(CN4CCOCC4)cc3)c2n1 [Example 79, 2-Butoxy-8-hydroxy-9-(4-morpholinomethylbenzyl)adenine]",0.0003
9,"CCCCOc1nc(N)c2nc(O)n(Cc3ccc(C(N)=O)nc3)c2n1 [Example 83, 2-Butoxy-9-{(6-carbamoyl-3-pyridyl)methyl}-8-hydroxyadenine]",0.0003
10,"CCCCOc1nc(N)c2nc(O)n(Cc3ccc(N4CCC(C(=O)OC)CC4)nc3)c2n1 [Example 87, 2-Butoxy-8-hydroxy-9-{6-(4-methoxycarbonyl-1-piperidyl)-3-pyridylmethyl}adenine]",0.001
11,"COC(=O)c1ccc(CSc2nc(N)c3nc(O)n(Cc4ccccc4)c3n2)cc1 [Example 104, 9-Benzyl-8-hydroxy-2-[(4-methoxycarbonylbenzyl)thio]adenine]",0.1
12,"Nc1nc(CC(=O)N2CCOCC2)nc2c1nc(O)n2Cc1ccccc1 [Example 110, 9-Benzyl-8-hydroxy-2-(morpholinocarbonylmethyl)adenine]",0.1
13,"Nc1nc(OCC(=O)O)nc2c1nc(O)n2Cc1ccccc1 [compound 16, 9-Benzyl-8-hydroxy-2-calboxylmethoxyadenine, reference compound]",1
14,"Cc1ccc(Cn2c(O)nc3c(N)nc(CCC(=O)O)nc32)cn1 [compound 17, reference compound]",0.3
15,"Nc1nc(CCC(=O)O)nc2c1nc(O)n2Cc1ccc(CC(=O)O)cc1 [compound 18, 2-(2-Carboxylethyl)-9-(4-carboxylmethylbenzyl)-8-hydroxyadenine, reference compound]",3
16,"CCCCOc1nc(N)c2nc(O)n(Cc3ccc(CC(=O)O)o3)c2n1 [compound 19, 2-Butoxy-9-(5-carboxylmethylfurfuryl)-8-hydroxyadenine, reference compound]",0.03
17,"CCCCOc1nc(N)c2nc(O)n(Cc3cccc(CCC(=O)O)c3)c2n1 [compound 20, reference compound]",0.03
18,"CCCCOc1nc(N)c2nc(O)n(Cc3ccc(N4CCC(C(=O)O)CC4)nc3)c2n1 [compound 21, reference compound]",0.003
19,"CCCCOc1nc(N)c2nc(O)n(Cc3ccc(C(=O)O)c(C(=O)O)c3)c2n1 [compound 23, 2-Butoxy-9-(3,4-dicarboxylbenzyl)-8-hydroxyadenine, reference compound]",0.1
20,"CCCCOc1nc(N)c2nc(O)n(Cc3ccc(C(C)C(=O)O)cc3)c2n1 (stereo not shown) [compound 31, 2-Butoxy-8-hydroxy-9-[4-(1-carboxyethyl)benzyl]adenine, reference compound]",0.03
21,"Nc1nc(SCc2cccc(C(=O)O)c2)nc2c1nc(O)n2Cc1ccccc1 [compound 34, 9-Benzyl-8-hydroxy-2-[(3-carboxybenzyl)thio]adenine, reference compound]",0.3
22,"Nc1nc(SCc2ccc(C(=O)O)cc2)nc2c1nc(O)n2Cc1ccccc1 [compound 35, 9-Benzyl-8-hydroxy-2-[(4-carboxybenzyl)thio]adenine, reference compound]",1
23,"Nc1nc(SCc2cccc(CC(=O)O)c2)nc2c1nc(O)n2Cc1ccccc1 [compound 36, 9-Benzyl-8-hydroxy-2-[(3-carboxymethylbenzyl)thio]adenine, reference compound]",3
24,"Nc1nc(SCc2ccc(CC(=O)O)cc2)nc2c1nc(O)n2Cc1ccccc1 [compound 37, 9-Benzyl-8-hydroxy-2-[(4-carboxymethylbenzyl)thio]adenine, reference compound]",1
